Tested on: Mice that over-expressed human Cu,Zn superoxide dismutase-1 mutant G93A
Experiment: Survival of ALS model mice treated by oral gavage
Type: in vivo
Details: G93A SOD1 mice; single-agent control treatment; untreated mice 125 days
Experimental: Compound 1 was dissolved in a PEG solvent (30% PEG 400, 5% EtOH, 5% DMSO, 1 mg/ml). The solution was mixed with Coenzyme Q10 in liposome (5 mg/ml, NuNaturals).
Mice that over-expressed human Cu,Zn superoxide dismutase-1 mutant G93A to develop a delayed and progressive motor neuron disease similar to human amyotrophic lateral sclerosis (ALS) were used in this assay.
The mixture of Compound 1 and Coenzyme Q10 were administered by gavage (oral) once a day (final dosage: 10 mg/kg of Compound 1 and 50 mg/kg of Coenzyme Q10) to 5 mice. The average survival time for the mice was 156 days.
As control, mice were subject to Compound 1 treatment, Coenzyme Q10 treatment, or no Compound 1 or Coenzyme Q10 treatment. The average survival time was 138 days for Compound 1-treated mice, 129 days for Coenzyme Q10 treatment mice, and 125 days for no Compound 1 or Coenzyme Q10-treated mice.

Row | Compound | average survival time [days]
1 | COC1=C(OC)C(=O)C(C/C=C(\C)CC/C=C(\C)CC/C=C(\C)CC/C=C(\C)CC/C=C(\C)CC/C=C(\C)CC/C=C(\C)CC/C=C(\C)CC/C=C(\C)CCC=C(C)C)=C(C)C1=O [Coenzyme Q10] | 129
2 | O=C(/C=C/c1ccc(O)c(O)c1)OCCc1ccccc1 [Compound 1, caffeic acid phenethyl ester] | 138

Reference: patent US9040579B2, “Combination therapy using coenzyme Q10 and a caffeic acid-derived ester” (priority 2010, dated 2015)
